Data from US7074789B2, “Kinase inhibitors” (Amgen Inc., priority 1999, dated 2006).

Experiments:
Type in all cases: biochemical
Itk = target: T1, Itk (Homo sapiens, UniProt Q08881); assay: Kinase inhibition assay (33P transfer), Itk; details: Table 3; read-out: Itk-1
T1 construct: Kinases are expressed as either kinase domains or full length constructs; made in house
T1 sequence (Q08881 1-620): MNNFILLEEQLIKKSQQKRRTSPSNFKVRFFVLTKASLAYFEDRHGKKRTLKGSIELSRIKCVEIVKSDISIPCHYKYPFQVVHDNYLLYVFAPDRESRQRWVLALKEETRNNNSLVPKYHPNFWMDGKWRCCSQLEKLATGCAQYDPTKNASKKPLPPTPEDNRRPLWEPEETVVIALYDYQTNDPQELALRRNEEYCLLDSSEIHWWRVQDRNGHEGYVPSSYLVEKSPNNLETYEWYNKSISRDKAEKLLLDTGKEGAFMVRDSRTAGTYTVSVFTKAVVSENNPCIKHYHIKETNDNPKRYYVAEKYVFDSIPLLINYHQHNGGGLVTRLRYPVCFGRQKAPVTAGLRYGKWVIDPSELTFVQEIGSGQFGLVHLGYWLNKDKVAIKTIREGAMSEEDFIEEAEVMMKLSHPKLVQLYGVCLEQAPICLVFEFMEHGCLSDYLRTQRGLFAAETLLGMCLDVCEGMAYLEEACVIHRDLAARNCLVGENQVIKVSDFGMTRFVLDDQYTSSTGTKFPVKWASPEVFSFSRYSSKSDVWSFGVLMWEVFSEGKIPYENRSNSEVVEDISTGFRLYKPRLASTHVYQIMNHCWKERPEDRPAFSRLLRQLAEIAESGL
Outline: (§1)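 Recombinant kinase domains or full-length GST- or His-tagged constructs, from E. coli or baculovirus/High Five cells, sometimes with regulatory polypeptides. Transfer of 33P from ATP to plate-bound poly(Glu,Tyr) 4:1 or poly(Arg,Ser) 3:1 counted by liquid scintillation after phosphoric acid wash; IC50 is the concentration halving incorporation.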

Kdr = target: T2, Kdr (Homo sapiens, UniProt P35968); assay: Kinase inhibition assay (33P transfer), Kdr; details: Table 3; read-out: KDR-1
T2 construct: Kinases are expressed as either kinase domains or full length constructs; made in house
Outline: (§2)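 Kinase domain or full-length constructs, GST- or polyHis-tagged, expressed in E. coli or baculovirus-High Five cells, sometimes with regulatory polypeptides. Activity measured as 33PO4 transfer from ATP to plate-bound poly(Glu,Tyr) 4:1 or poly(Arg,Ser) 3:1; after incubation, plates washed with 0.5% phosphoric acid and counted by liquid scintillation.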

Tek = target: T3, Tek (Homo sapiens, UniProt Q02763); assay: Kinase inhibition assay (33P transfer), Tek; details: read-out: Tek-1
T3 construct: Kinases are expressed as either kinase domains or full length constructs; made in house
Outline: as §1

Hck-1 = target: T4, Hck-1 (Homo sapiens, UniProt P08631); assay: Kinase inhibition assay (33P transfer), Hck; details: Table 6, Hck-1 kinase inhibition class
T4 construct: Kinases are expressed as either kinase domains or full length constructs; made in house

Lyn = target: T5, Lyn (Homo sapiens, UniProt P07948); assay: Kinase inhibition assay (33P transfer), Lyn; details: Table 6, Lyn-1 kinase inhibition class
T5 construct: Kinases are expressed as either kinase domains or full length constructs; made in house
Outline: as §1

IGFR-1 = target: T6, IGFR-1 (Homo sapiens, UniProt P08069); assay: Kinase inhibition assay (33P transfer), IGFR-1; details: Table 2, kinase inhibition class
T6 construct: Kinases are expressed as either kinase domains or full length constructs; made in house

Fyn = target: T7, Fyn (Homo sapiens, UniProt P06241); assay: Kinase inhibition assay (33P transfer), Fyn; details: read-out: Fyn-1
T7 construct: Kinases are expressed as either kinase domains or full length constructs; made in house
Outline: as §1

FGFR1 = target: T8, FGFR1 (Homo sapiens, UniProt P11362); assay: Kinase inhibition assay (33P transfer), FGFR1; details: read-out: FGFR1-1
T8 construct: Kinases are expressed as either kinase domains or full length constructs; made in house

c-Met = target: T9, c-Met (Homo sapiens, UniProt P08581); assay: Kinase inhibition assay (33P transfer), c-Met; details: Table 2, kinase inhibition class; read-out: Met-1
T9 construct: Kinases are expressed as either kinase domains or full length constructs; made in house
Outline: as §1

AKT = target: T10, AKT (Homo sapiens, UniProt Q9Y243); assay: Kinase inhibition assay (33P transfer), AKT; details: Table 2, kinase inhibition class; read-out: AKT3-1
T10 construct: Kinases are expressed as either kinase domains or full length constructs; made in house
Outline: as §2

Lck = target: T11, Lck (Homo sapiens, UniProt P06239); assay: Kinase inhibition assay (33P transfer), Lck; details: Table 3; read-out: Lck-1
T11 construct: Kinases are expressed as either kinase domains or full length constructs; made in house
Outline: as §2

Zap-70 = target: T12, Zap-70 (Homo sapiens, UniProt P43403); assay: Kinase inhibition assay (33P transfer), Zap-70; details: Table 3; read-out: Zap-1
T12 construct: Kinases are expressed as either kinase domains or full length constructs; made in house
T12 sequence (P43403 1-619): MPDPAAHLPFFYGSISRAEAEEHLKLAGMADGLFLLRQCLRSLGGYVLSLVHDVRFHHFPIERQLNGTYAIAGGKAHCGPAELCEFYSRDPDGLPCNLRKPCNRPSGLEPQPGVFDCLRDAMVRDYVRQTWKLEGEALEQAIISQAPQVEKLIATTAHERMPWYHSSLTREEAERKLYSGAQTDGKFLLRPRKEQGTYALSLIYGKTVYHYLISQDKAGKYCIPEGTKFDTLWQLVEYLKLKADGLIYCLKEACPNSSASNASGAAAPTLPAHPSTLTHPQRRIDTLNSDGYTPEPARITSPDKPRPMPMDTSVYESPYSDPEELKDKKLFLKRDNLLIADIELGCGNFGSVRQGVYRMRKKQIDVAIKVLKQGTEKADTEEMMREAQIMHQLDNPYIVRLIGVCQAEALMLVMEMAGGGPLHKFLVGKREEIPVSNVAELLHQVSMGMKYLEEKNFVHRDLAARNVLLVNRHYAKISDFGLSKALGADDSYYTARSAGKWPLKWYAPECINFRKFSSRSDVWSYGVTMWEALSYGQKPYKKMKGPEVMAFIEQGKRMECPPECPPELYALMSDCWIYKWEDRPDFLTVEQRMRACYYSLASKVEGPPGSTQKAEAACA
Outline: as §2

EGFR = target: T13, EGFR (Homo sapiens, UniProt P00533); assay: Kinase inhibition assay (33P transfer), EGFR; details: Table 2, kinase inhibition class; read-out: EGFR-1
T13 construct: Kinases are expressed as either kinase domains or full length constructs; made in house
Outline: as §1

ErbB4 = target: T14, ErbB4 (Homo sapiens, UniProt Q15303); assay: Kinase inhibition assay (33P transfer), ErbB4; details: read-out: ErbB4-1
T14 construct: Kinases are expressed as either kinase domains or full length constructs; made in house

T7 sequence (P06241 whole entry, species assumed, the tested form may be a part): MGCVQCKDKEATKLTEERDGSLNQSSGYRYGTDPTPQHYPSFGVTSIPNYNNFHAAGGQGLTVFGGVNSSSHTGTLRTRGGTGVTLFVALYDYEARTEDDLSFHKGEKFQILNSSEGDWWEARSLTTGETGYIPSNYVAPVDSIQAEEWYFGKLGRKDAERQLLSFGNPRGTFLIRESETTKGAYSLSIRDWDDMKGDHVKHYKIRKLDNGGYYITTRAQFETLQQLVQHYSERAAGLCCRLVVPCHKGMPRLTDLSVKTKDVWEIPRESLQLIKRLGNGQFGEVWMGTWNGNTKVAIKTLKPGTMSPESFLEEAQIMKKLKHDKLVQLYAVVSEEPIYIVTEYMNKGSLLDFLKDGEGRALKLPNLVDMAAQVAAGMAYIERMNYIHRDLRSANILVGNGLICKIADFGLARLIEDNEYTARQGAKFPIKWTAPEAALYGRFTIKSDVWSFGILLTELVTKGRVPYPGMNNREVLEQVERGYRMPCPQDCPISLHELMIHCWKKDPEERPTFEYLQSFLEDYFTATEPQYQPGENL
T4 sequence (P08631 whole entry, the tested form may be a part): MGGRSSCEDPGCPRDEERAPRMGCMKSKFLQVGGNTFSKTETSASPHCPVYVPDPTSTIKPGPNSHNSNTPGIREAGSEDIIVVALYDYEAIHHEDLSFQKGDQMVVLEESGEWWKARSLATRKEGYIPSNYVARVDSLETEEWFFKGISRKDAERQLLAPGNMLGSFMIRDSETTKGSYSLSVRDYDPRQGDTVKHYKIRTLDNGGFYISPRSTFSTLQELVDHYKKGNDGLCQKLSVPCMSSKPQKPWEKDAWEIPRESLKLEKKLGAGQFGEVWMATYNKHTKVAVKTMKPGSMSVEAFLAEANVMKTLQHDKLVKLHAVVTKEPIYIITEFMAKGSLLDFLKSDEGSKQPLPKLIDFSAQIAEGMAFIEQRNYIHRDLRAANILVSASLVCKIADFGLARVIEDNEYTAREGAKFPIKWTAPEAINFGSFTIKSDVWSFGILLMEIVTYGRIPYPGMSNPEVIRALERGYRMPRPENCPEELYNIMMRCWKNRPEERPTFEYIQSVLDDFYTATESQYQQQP
T3 sequence (Q02763 23-1124, species assumed): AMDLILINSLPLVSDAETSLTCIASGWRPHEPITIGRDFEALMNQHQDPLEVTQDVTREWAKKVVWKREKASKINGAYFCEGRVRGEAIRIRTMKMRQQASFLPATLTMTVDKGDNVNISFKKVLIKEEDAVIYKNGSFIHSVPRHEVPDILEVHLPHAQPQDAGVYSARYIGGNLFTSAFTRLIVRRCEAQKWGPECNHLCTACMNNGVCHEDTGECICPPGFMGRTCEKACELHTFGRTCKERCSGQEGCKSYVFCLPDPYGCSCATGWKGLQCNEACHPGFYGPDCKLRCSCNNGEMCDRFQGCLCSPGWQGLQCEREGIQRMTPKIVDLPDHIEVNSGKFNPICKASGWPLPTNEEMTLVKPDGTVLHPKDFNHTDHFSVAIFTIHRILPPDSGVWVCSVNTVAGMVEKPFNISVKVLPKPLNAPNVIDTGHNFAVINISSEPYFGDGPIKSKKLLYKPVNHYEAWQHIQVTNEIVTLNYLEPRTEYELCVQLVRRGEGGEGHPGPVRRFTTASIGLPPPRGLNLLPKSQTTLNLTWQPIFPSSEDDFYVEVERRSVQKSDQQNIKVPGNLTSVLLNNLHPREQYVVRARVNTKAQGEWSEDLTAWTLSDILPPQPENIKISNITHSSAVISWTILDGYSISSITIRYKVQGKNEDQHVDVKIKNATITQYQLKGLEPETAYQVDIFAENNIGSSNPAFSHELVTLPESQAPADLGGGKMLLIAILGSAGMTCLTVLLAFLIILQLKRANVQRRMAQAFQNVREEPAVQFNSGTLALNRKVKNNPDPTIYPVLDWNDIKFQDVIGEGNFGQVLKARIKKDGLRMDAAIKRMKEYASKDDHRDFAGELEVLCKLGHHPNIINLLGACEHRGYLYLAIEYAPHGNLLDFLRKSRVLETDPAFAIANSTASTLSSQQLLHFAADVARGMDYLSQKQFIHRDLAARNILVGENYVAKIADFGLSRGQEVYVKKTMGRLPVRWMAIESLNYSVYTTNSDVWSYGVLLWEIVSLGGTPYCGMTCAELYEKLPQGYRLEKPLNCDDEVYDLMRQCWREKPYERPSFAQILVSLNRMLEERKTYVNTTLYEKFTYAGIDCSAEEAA
T5 sequence (P07948 whole entry, species assumed, the tested form may be a part): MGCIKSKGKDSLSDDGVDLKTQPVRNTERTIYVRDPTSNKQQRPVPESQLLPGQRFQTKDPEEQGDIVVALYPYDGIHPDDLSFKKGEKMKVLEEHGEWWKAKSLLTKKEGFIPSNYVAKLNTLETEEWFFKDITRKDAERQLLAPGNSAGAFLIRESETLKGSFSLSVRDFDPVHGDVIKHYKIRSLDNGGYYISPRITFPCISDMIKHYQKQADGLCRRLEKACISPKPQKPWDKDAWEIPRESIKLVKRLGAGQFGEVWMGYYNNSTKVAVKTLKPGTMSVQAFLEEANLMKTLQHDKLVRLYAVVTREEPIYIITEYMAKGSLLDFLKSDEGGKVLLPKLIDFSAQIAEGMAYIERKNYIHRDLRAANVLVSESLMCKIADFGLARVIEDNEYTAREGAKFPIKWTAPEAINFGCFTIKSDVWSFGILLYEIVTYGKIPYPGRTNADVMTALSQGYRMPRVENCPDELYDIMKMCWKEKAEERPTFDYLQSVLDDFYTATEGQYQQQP
T2 sequence (P35968 20-1356, species assumed): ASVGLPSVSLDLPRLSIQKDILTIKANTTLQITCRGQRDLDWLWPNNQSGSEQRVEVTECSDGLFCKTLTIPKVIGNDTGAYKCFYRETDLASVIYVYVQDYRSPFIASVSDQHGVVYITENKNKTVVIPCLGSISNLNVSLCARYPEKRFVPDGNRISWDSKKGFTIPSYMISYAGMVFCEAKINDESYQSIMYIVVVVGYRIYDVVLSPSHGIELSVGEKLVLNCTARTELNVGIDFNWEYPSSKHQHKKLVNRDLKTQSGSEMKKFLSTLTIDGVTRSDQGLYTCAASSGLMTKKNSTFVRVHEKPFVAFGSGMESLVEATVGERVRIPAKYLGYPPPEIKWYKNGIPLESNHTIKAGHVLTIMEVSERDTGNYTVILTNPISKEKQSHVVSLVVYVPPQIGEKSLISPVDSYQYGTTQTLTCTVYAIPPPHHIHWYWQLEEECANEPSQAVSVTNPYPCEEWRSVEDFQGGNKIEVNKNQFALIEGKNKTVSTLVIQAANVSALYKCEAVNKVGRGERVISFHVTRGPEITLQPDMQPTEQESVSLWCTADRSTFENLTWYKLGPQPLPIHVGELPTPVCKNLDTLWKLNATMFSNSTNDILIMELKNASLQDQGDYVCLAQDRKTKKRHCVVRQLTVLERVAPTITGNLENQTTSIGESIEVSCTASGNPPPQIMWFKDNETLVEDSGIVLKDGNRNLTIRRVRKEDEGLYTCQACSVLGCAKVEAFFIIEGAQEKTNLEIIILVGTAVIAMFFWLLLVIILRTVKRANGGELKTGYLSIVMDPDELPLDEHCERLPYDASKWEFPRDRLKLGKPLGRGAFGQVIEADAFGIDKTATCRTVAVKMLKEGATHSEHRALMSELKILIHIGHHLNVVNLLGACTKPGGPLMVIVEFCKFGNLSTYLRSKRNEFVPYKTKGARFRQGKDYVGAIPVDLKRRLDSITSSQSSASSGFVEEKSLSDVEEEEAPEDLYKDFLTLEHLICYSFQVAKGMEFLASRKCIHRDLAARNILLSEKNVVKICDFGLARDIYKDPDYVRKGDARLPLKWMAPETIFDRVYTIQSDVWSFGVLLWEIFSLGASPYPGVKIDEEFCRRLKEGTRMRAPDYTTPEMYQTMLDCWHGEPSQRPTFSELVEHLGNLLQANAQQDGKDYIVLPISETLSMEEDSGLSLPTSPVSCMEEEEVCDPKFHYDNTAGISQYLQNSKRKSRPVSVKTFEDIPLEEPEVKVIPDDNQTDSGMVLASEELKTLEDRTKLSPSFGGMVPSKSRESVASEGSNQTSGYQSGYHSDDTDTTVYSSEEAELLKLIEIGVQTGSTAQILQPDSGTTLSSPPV
T8 sequence (P11362 22-822, species assumed): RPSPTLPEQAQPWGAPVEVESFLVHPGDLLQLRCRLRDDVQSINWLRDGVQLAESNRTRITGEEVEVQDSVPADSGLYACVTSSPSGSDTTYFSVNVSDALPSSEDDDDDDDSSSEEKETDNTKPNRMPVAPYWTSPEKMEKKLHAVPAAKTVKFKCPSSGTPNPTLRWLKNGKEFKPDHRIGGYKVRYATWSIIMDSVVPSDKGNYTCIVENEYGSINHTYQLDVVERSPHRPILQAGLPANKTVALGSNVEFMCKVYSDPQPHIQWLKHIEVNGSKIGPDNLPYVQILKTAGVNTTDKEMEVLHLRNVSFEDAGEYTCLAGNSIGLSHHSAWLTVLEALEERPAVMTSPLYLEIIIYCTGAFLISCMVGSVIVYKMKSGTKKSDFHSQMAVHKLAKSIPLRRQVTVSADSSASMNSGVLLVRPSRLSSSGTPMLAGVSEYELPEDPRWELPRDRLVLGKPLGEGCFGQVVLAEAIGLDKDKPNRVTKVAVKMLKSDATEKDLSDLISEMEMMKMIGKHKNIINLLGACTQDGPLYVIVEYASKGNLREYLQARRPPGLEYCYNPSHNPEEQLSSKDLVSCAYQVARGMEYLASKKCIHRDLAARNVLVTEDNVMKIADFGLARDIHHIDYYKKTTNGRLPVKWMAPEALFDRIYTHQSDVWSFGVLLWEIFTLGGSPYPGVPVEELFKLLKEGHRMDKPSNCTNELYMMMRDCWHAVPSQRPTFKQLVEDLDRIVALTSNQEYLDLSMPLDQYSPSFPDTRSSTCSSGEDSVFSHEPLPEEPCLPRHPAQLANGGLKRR

IC50 (Itk) [µM]	IC50 (Kdr) [µM]	IC50 (Tek) [µM]	IC50 (Hck-1) [µM]	IC50 (Lyn) [µM]	IC50 (IGFR-1) [µM]	IC50 (Fyn) [µM]	IC50 (FGFR1) [µM]	IC50 (c-Met) [µM]	IC50 (AKT) [µM]	IC50 (Lck) [µM]	IC50 (Zap-70) [µM]	IC50 (EGFR) [µM]	IC50 (ErbB4) [µM]	SMILES
> 10.9	< 0.968	8.47 to 10.9	> 10.9	> 10.9	> 10.9	> 10.9	> 10.9	> 10.9	> 10.9	0.968 to 5.81	> 10.9	8.47 to 10.9	–	COc1ccc(Nc2ncnc(Nc3cc(OC)c(OC)c(OC)c3)n2)cc1OC [Compound 36]
> 13	1.16 to 6.95	> 13	–	–	> 13	–	> 13	> 13	> 13	10.1 to 13	> 13	> 13	–	COc1cc(Nc2ncnc(N3CCCCC3)n2)cc(OC)c1OC [Compound 207]
> 12.3	< 1.09	> 12.3	–	–	6.55 to 9.55	–	> 12.3	> 12.3	> 12.3	> 12.3	> 12.3	> 12.3	–	COc1ccc(Nc2ncnc(Nc3ccc(N(C)C)cc3)n2)cc1OC [Compound 114]
> 12.6	6.74 to 9.83	> 12.6	–	–	> 12.6	–	–	> 12.6	> 12.6	> 12.6	6.74 to 9.83	< 1.12	> 12.6	Cc1cccc(Nc2ncnc(Nc3cccc(Br)c3)n2)c1 [Compound 109]
> 11.3	1.01 to 6.04	> 11.3	> 11.3	> 11.3	6.04 to 8.81	1.01 to 6.04	> 11.3	> 11.3	> 11.3	6.04 to 8.81	> 11.3	1.01 to 6.04	–	COc1cc(Nc2ncnc(Nc3ccc(C(=O)O)cc3)n2)cc(OC)c1OC [Compound 104]
1.14 to 6.87	< 1.14	1.14 to 6.87	> 12.9	> 12.9	< 1.14	> 12.9	< 1.14	1.14 to 6.87	6.87 to 10	1.14 to 6.87	> 12.9	6.87 to 10	–	COc1ccc(Nc2ncnc(-n3c(N)nc4ccccc43)n2)cc1O [Compound 286]
> 10.9	0.965 to 5.79	–	> 10.9	> 10.9	> 10.9	> 10.9	–	> 10.9	> 10.9	8.45 to 10.9	> 10.9	5.79 to 8.45	–	COc1cc(Nc2ncnc(Nc3cc(OC)c(OC)c(OC)c3)n2)cc(OC)n1 [Compound 253]
0.9 to 5.4	< 0.9	0.9 to 5.4	> 10.1	> 10.1	< 0.9	> 10.1	< 0.9	> 10.1	> 10.1	> 10.1	> 10.1	> 10.1	–	COc1cc(Nc2ncnc(-n3c(N)nc4ccccc43)n2)ccc1OCCn1ccnn1 [Compound 324]
